Data reported in patent publication US8299048B2, “Hexahydrocyclopentyl[f]indazole sulfonamides and derivatives thereof as selective glucocorticoid receptor modulators” (Merck Sharp & Dohme Corp., priority 2008, dated 2012).

Target: T1, glucocorticoid receptor (Homo sapiens, UniProt P04150)
T1 construct: endogenous in cells
T1 sequence (P04150 1-777): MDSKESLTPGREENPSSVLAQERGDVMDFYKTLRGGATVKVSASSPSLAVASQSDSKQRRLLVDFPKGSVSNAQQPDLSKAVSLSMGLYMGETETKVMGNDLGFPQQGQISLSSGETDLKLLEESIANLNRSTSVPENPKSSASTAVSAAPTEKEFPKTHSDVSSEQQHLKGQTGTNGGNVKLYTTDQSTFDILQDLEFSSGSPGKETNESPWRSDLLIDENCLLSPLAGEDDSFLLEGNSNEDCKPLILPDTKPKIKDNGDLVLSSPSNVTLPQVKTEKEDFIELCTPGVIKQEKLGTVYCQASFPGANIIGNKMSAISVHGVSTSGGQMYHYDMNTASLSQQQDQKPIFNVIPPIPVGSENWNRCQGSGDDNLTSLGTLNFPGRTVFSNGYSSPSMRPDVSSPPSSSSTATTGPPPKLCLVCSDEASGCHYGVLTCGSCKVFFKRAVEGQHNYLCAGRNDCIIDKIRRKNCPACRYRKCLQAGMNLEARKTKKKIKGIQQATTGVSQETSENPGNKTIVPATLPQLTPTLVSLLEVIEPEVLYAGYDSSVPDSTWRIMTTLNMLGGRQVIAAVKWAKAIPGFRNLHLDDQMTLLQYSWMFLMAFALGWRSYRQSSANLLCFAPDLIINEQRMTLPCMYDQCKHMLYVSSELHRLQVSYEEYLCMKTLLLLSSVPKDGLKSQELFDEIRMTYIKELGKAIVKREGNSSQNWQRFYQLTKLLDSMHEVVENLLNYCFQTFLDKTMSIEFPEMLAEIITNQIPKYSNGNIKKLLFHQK
Test: Ligand binding assay (GR BIND)
How it was run: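 Displacement of tritiated dexamethasone (6 nM trace solution) from receptor in cell supernatant was measured after overnight incubation at 4 °C in molybdate-containing TEGM, pH 7.2, 2% ethanol. Hydroxylapatite pulled down the receptor–ligand complex for filter washing and scintillation counting, with dexamethasone as reference.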

Ki [nM] | SMILES
2 | Cc1ccc(CCN(C[C@H]2CCC3=Cc4c(cnn4-c4ccc(F)cc4)C[C@@]32C)S(=O)(=O)c2ccccc2F)cc1 [Example 91, 2-fluoro-N-{[(4αR,5S)-1-(4-fluorophenyl)-4α-methyl-1,4,4α,5,6,7-hexahydrocyclopenta[f]indazol-5-yl]methyl}-N-[2-(4-methylphenyl)ethyl]benzenesulfonamide]
2.7 | Cn1cc(S(=O)(=O)N(CCO)C[C@H]2CCC3=Cc4c(cnn4-c4ccc(F)cc4)C[C@@]32C)c(C(F)(F)F)n1 [Example 65, N-{[(4αR,5S)-1-(4-fluorophenyl)-4α-methyl-1,4,4α,5,6,7-hexahydrocyclopenta[f]indazol-5-yl]methyl}-N-(2-hydroxyethyl)-1-methyl-3-(trifluoromethyl)-1H-pyrazole-4-sulfonamide]
3.6 | COc1ccccc1CCN(C[C@H]1CCC2=Cc3c(cnn3-c3ccc(F)cc3)C[C@@]21C)S(=O)(=O)c1ccccc1F [Example 90, 2-fluoro-N-{[(4αR,5S)-1-(4-fluorophenyl)-4α-methyl-1,4,4α,5,6,7-hexahydrocyclopenta[f]indazol-5-yl]methyl}-N-[2-(2-methoxyphenyl)ethyl]benzenesulfonamide]
2.7 | CC(C1CCC2=Cc3c(cnn3-c3ccc(F)cc3)C[C@@]21C)N(CCc1ccccc1F)S(=O)(=O)CC(F)(F)F (stereo partly drawn) [Example 93, 2,2,2-trifluoro-N-[2-(2-fluorophenyl)ethyl]-N-{1-[(4αR)-1-(4-fluorophenyl)-4α-methyl-1,4,4α,5,6,7-hexahydrocyclopenta[f]indazol-5-yl]ethyl}ethanesulfonamide]
13.7 | C[C@]12Cc3cnn(-c4ccc(F)cc4)c3C=C1CC[C@@H]2CN(CCO)S(=O)(=O)c1cc(C(F)(F)F)ccc1Cl [Example 80, 2-chloro-N-{[(4αR,5S)-1-(4-fluorophenyl)-4α-methyl-1,4,4α,5,6,7-hexahydrocyclopenta[f]indazol-5-yl]methyl}-N-(2-hydroxyethyl)-5-(trifluoromethyl)benzenesulfonamide]
7.9 | Cc1cc(S(=O)(=O)N(CCO)C[C@H]2CCC3=Cc4c(cnn4-c4ccc(F)cc4)C[C@@]32C)c(C)o1 [Example 66, N-{[(4αR,5S)-1-(4-fluorophenyl)-4α-methyl-1,4,4α,5,6,7-hexahydrocyclopenta[f]indazol-5-yl]methyl}-N-(2-hydroxyethyl)-2,5-dimethylfuran-3-sulfonamide]

The next lines start with the molecule.

SMILES | Ki [nM]
Cc1noc(C)c1S(=O)(=O)N(CCO)C[C@H]1CCC2=Cc3c(cnn3-c3ccc(F)cc3)C[C@@]21C [Example 71, N-{[(4αR,5S)-1-(4-fluorophenyl)-4α-methyl-1,4,4α,5,6,7-hexahydrocyclopenta[f]indazol-5-yl]methyl}-N-(2-hydroxyethyl)-3,5-dimethylisoxazole-4-sulfonamide] | 5
Cn1nc(C(F)(F)F)cc1-c1ccc(S(=O)(=O)N(CCO)C[C@H]2CCC3=Cc4c(cnn4-c4ccc(F)cc4)C[C@@]32C)s1 [Example 67, N-{[(4αR,5S)-1-(4-fluorophenyl)-4α-methyl-1,4,4α,5,6,7-hexahydrocyclopenta[f]indazol-5-yl]methyl}-N-(2-hydroxyethyl)-5-[1-methyl-3-(trifluoromethyl)-1H-pyrazole-5-yl]thiophene-2-sulfonamide] | 13.4
C[C@]12Cc3cnn(-c4ccc(F)cc4)c3C=C1CC[C@@H]2CN(CCO)S(=O)(=O)c1ccccc1C#N [Example 78, 2-cyano-N-{[(4αR,5S)-1-(4-fluorophenyl)-4α-methyl-1,4,4α,5,6,7-hexahydrocyclopenta[f]indazol-5-yl]methyl}-N-(2-hydroxyethyl)benzenesulfonamide] | 2.3
C[C@]12Cc3cnn(-c4ccc(F)cc4)c3C=C1CC[C@@H]2CN(CCO)S(=O)(=O)c1ccc(F)cc1F [Example 82, 2,4-difluoro-N-{[(4αR,5S)-1-(4-fluorophenyl)-4α-methyl-1,4,4α,5,6,7-hexahydrocyclopenta[f]indazol-5-yl]methyl}-N-(2-hydroxyethyl)benzenesulfonamide] | 3.2
C[C@]12Cc3cnn(-c4ccc(F)cc4)c3C=C1CC[C@@H]2CN(CCO)S(=O)(=O)c1ccccc1C(F)(F)F [Example 70, N-{[(4αR,5S)-1-(4-fluorophenyl)-4α-methyl-1,4,4α,5,6,7-hexahydrocyclopenta[f]indazol-5-yl]methyl}-N-(2-hydroxyethyl)-2-(trifluoromethyl)benzenesulfonamide] | 4.5
C[C@]12Cc3cnn(-c4ccc(F)cc4)c3C=C1CC[C@@H]2CN(CCO)S(=O)(=O)c1cc(F)cc(F)c1 [Example 72] | 1.4
Cc1nn(C)c(Cl)c1S(=O)(=O)N(CCO)C[C@H]1CCC2=Cc3c(cnn3-c3ccc(F)cc3)C[C@@]21C [Example 83, 5-chloro-N-{[(4αR,5S)-1-(4-fluorophenyl)-4α-methyl-1,4,4α,5,6,7-hexahydrocyclopenta[f]indazol-5-yl]methyl}-N-(2-hydroxyethyl)-1,3-dimethyl-1H-pyrazole-4-sulfonamide] | 3.7
